Experimental data published in ChEMBL document CHEMBL5247575 (J Med Chem, 2018).

Tests used:
Assay type in all cases: functional
Acinetobacter baumannii = test: Synergistic antibacterial activity against Acinetobacter baumannii NCTC 13301 producing OXA-23/51 infected in sc dosed Swiss albino mouse assessed as tigecycline MIC at 8 ug/ml administered 1 hr post infection and measured upto 7 days; details: NCTC 13301, 168 h, dose 8 µg/ml, time <= 7 day
Klebsiella pneumoniae [1] = test: Antibacterial activity against Klebsiella pneumoniae CAV 1543 producing OXA-48 by broth microdilution method
Klebsiella pneumoniae [2] = test: Antibacterial activity against Klebsiella pneumoniae 901/1860 producing KPC-3 by broth microdilution method

N#C[C@@H]1CC[C@@H]2CN1C(=O)N2OS(=O)(=O)[O-].[Na+]
MIC (Acinetobacter baumannii): 1 µg/mL

NC(=O)[C@@H]1CC[C@@H]2CN1C(=O)N2OS(=O)(=O)[O-].[Na+] [AVIBACTAM SODIUM]
MIC (Klebsiella pneumoniae [1]): > 16 µg/mL

O=C(NNC(=O)[C@@H]1CC[C@@H]2CN1C(=O)N2OS(=O)(=O)O)[C@@H]1CCCNC1 [ZIDEBACTAM]
MIC (Klebsiella pneumoniae [2]): > 16 µg/mL
